PMC5218480 (PLoS ONE, 2017)

Tested on: MV-4-11 cells
Assay: Gene expression microarray analysis (Affymetrix PrimeView) and GSEA
Type: cell-based, human
Parameters: RFU PODN (11730768_x_at) / Fold change /veh PODN (11730768_x_at) / RFU LINC00158 (11744669_a_at) / Fold change /veh LINC00158 (11744669_a_at) / RFU DUSP10 (11751237_a_at) / Fold change /veh DUSP10 (11751237_a_at) / RFU ID3 (11757404_x_at) / Fold change /veh ID3 (11757404_x_at) / RFU PLEKHG5 (11737974_s_at) / Fold change /veh PLEKHG5 (11737974_s_at) / RFU LRRC4B (11730491_at) / Fold change /veh LRRC4B (11730491_at) / RFU GIMAP4 (11747438_a_at) / Fold change /veh GIMAP4 (11747438_a_at) / RFU KRT8 (11758183_x_at) / Fold change /veh KRT8 (11758183_x_at) / RFU CNN1 (11734310_a_at) / Fold change /veh CNN1 (11734310_a_at) / RFU VPS37D (11726825_at) / Fold change /veh VPS37D (11726825_at) / RFU C10orf10 (11716522_x_at) / Fold change /veh C10orf10 (11716522_x_at) / RFU KIR2DL2 /// KIR2DL4 /// KIR2DL5A /// KIR2DL5B /// KIR2DS1 /// KIR2DS2 /// KIR2DS3 /// KIR2DS4 /// KIR3DL3 /// KIR3DL3 /// KIR3DS1 (11738374_at) / Fold change /veh KIR2DL2 /// KIR2DL4 /// KIR2DL5A /// KIR2DL5B /// KIR2DS1 /// KIR2DS2 /// KIR2DS3 /// KIR2DS4 /// KIR3DL3 /// KIR3DL3 /// KIR3DS1 (11738374_at) / RFU C1QL1 (11718748_at) / Fold change /veh C1QL1 (11718748_at) / RFU TMPRSS4 (11747572_a_at) / Fold change /veh TMPRSS4 (11747572_a_at) / RFU HAMP (11756126_x_at) / Fold change /veh HAMP (11756126_x_at) / RFU RNFT2 (11725882_a_at) / Fold change /veh RNFT2 (11725882_a_at) / RFU NR4A2 (11747474_a_at) / Fold change /veh NR4A2 (11747474_a_at) / RFU ABCC12 (11746883_a_at) / Fold change /veh ABCC12 (11746883_a_at) / RFU TMEM136 (11760407_x_at) / Fold change /veh TMEM136 (11760407_x_at) / RFU CLDN22 /// WWC2 (11732394_at) / Fold change /veh CLDN22 /// WWC2 (11732394_at) / RFU HLA-DPB1 (11760878_x_at) / Fold change /veh HLA-DPB1 (11760878_x_at) / RFU SPINT1 (11716480_a_at) / Fold change /veh SPINT1 (11716480_a_at) / RFU GAP43 (11754022_s_at) / Fold change /veh GAP43 (11754022_s_at) / RFU A4GNT (11735810_at) / Fold change /veh A4GNT (11735810_at) / RFU PRB3 (11715151_x_at) / Fold change /veh PRB3 (11715151_x_at) / RFU TUBB4B (11761932_at) / Fold change /veh TUBB4B (11761932_at) / RFU CAPN14 (11732068_a_at) / Fold change /veh CAPN14 (11732068_a_at) / RFU TMCC2 (11721928_a_at) / Fold change /veh TMCC2 (11721928_a_at) / RFU IRGQ (11745062_a_at) / Fold change /veh IRGQ (11745062_a_at) / RFU FAM174B (11720279_a_at) / Fold change /veh FAM174B (11720279_a_at) / RFU TMPRSS4 (11748680_a_at) / Fold change /veh TMPRSS4 (11748680_a_at) / RFU FAM212B (11763350_a_at) / Fold change /veh FAM212B (11763350_a_at) / RFU PLEKHG5 (11743358_a_at) / Fold change /veh PLEKHG5 (11743358_a_at) / RFU ZSCAN30 (11745921_a_at) / Fold change /veh ZSCAN30 (11745921_a_at) / RFU CMKLR1 (11741424_a_at) / Fold change /veh CMKLR1 (11741424_a_at) / RFU LOC101060620 /// MAPK8IP1 (11723275_at) / Fold change /veh LOC101060620 /// MAPK8IP1 (11723275_at) / RFU SPTSSB (11747773_x_at) / Fold change /veh SPTSSB (11747773_x_at) / RFU PRSS12 (11739890_at) / Fold change /veh PRSS12 (11739890_at) / RFU BIN1 (11741810_x_at) / Fold change /veh BIN1 (11741810_x_at) / RFU WNT11 (11732464_a_at) / Fold change /veh WNT11 (11732464_a_at) / RFU C10orf10 (11716521_a_at) / Fold change /veh C10orf10 (11716521_a_at) / RFU C5orf56 (11738089_at) / Fold change /veh C5orf56 (11738089_at) / RFU CYB561 (11721691_x_at) / Fold change /veh CYB561 (11721691_x_at) / RFU ANKRD19P (11752326_a_at) / Fold change /veh ANKRD19P (11752326_a_at) / RFU OR2T12 /// OR2T33 /// OR2T8 (11738714_s_at) / Fold change /veh OR2T12 /// OR2T33 /// OR2T8 (11738714_s_at) / RFU VCAN (11748164_a_at) / Fold change /veh VCAN (11748164_a_at) / RFU JSRP1 (11732532_at) / Fold change /veh JSRP1 (11732532_at) / RFU KRTAP10-11 (11738290_x_at) / Fold change /veh KRTAP10-11 (11738290_x_at) / RFU MYO3A (11730013_a_at) / Fold change /veh MYO3A (11730013_a_at) / RFU EBF3 (11725865_a_at) / Fold change /veh EBF3 (11725865_a_at) / RFU CAMK2N1 (11719241_x_at) / Fold change /veh CAMK2N1 (11719241_x_at) / RFU C5orf56 (11738088_a_at) / Fold change /veh C5orf56 (11738088_a_at) / RFU OLFML3 (11715873_a_at) / Fold change /veh OLFML3 (11715873_a_at) / RFU LOC100653217 /// NTM (11731650_a_at) / Fold change /veh LOC100653217 /// NTM (11731650_a_at) / RFU MAPK11 (11762145_a_at) / Fold change /veh MAPK11 (11762145_a_at) / RFU FIZ1 (11724087_x_at) / Fold change /veh FIZ1 (11724087_x_at) / RFU OASL (11726364_x_at) / Fold change /veh OASL (11726364_x_at) / RFU SOX15 (11748057_x_at) / Fold change /veh SOX15 (11748057_x_at) / RFU CD79A (11719716_a_at) / Fold change /veh CD79A (11719716_a_at) / RFU HIST1H1D (11736915_at) / Fold change /veh HIST1H1D (11736915_at) / RFU CASKIN2 (11723855_a_at) / Fold change /veh CASKIN2 (11723855_a_at) / RFU LOC730098 (11760151_x_at) / Fold change /veh LOC730098 (11760151_x_at) / RFU OR4N2 (11742367_at) / Fold change /veh OR4N2 (11742367_at) / RFU PRRT2 (11749266_a_at) / Fold change /veh PRRT2 (11749266_a_at) / RFU SNX32 (11753110_a_at) / Fold change /veh SNX32 (11753110_a_at) / RFU CDHR5 (11726645_a_at) / Fold change /veh CDHR5 (11726645_a_at) / RFU RCAN1 (11760418_a_at) / Fold change /veh RCAN1 (11760418_a_at) / RFU FAM167A (11723789_a_at) / Fold change /veh FAM167A (11723789_a_at) / RFU FAM26E (11764081_at) / Fold change /veh FAM26E (11764081_at) / RFU ISYNA1 (11749810_s_at) / Fold change /veh ISYNA1 (11749810_s_at) / RFU ACY1 (11761880_at) / Fold change /veh ACY1 (11761880_at) / RFU 11764098_at / Fold change /veh 11764098_at / RFU SAMD14 (11745864_x_at) / Fold change /veh SAMD14 (11745864_x_at) / RFU NPB (11741838_a_at) / Fold change /veh NPB (11741838_a_at) / RFU TMPRSS6 (11731388_a_at) / Fold change /veh TMPRSS6 (11731388_a_at) / RFU KRTAP10-2 (11738614_at) / Fold change /veh KRTAP10-2 (11738614_at) / RFU ARHGAP8 /// PRR5-ARHGAP8 (11727945_x_at) / Fold change /veh ARHGAP8 /// PRR5-ARHGAP8 (11727945_x_at) / RFU KRTAP5-7 /// NADSYN1 (11734609_at) / Fold change /veh KRTAP5-7 /// NADSYN1 (11734609_at) / RFU RASL12 (11751679_a_at) / Fold change /veh RASL12 (11751679_a_at) / RFU CDKN2B (11736163_a_at) / Fold change /veh CDKN2B (11736163_a_at) / RFU PRF1 (11729649_at) / Fold change /veh PRF1 (11729649_at) / RFU, ZNF638 /// ZNF638-IT1 / Fold change vs veh, ZNF638 /// ZNF638-IT1 / RFU, PANK3 / Fold change vs veh, PANK3 / RFU, SH3YL1 / Fold change vs veh, SH3YL1 / RFU, ZEB2 / Fold change vs veh, ZEB2 / RFU, NRIP1 / Fold change vs veh, NRIP1 / RFU, PTTG1IP / Fold change vs veh, PTTG1IP / RFU, CAPN2 / Fold change vs veh, CAPN2 / RFU, MED14 / Fold change vs veh, MED14 / RFU, SNORA58 / Fold change vs veh, SNORA58 / RFU, C1orf63 / Fold change vs veh, C1orf63 / RFU, LRRFIP1 / Fold change vs veh, LRRFIP1 / RFU, NDUFAF7 / Fold change vs veh, NDUFAF7 / RFU, SLC12A2 / Fold change vs veh, SLC12A2 / RFU, IBTK / Fold change vs veh, IBTK / RFU, ESF1 / Fold change vs veh, ESF1 / Fold change vs veh, TMEM50B / RFU, TAOK1 / Fold change vs veh, TAOK1 / RFU, ACBD3 / Fold change vs veh, ACBD3 / RFU, TMA16 / Fold change vs veh, TMA16 / RFU, RWDD3 / Fold change vs veh, RWDD3 / RFU, BCAT1 / Fold change vs veh, BCAT1 / RFU, EDEM3 / Fold change vs veh, EDEM3 / RFU, TMEM33 / Fold change vs veh, TMEM33 / RFU, WDR75 / Fold change vs veh, WDR75 / RFU, AHCTF1 / Fold change vs veh, AHCTF1 / RFU, TFRC / Fold change vs veh, TFRC / RFU, ZDHHC17 / Fold change vs veh, ZDHHC17 / RFU, NOM1 / Fold change vs veh, NOM1 / RFU, ARL8B / Fold change vs veh, ARL8B / RFU, ZBTB11 / Fold change vs veh, ZBTB11 / RFU, TAMM41 / Fold change vs veh, TAMM41 / RFU, KIAA1704 /// LOC100996395 / Fold change vs veh, KIAA1704 /// LOC100996395 / RFU, ING1 / Fold change vs veh, ING1 / RFU, TRMT61B / Fold change vs veh, TRMT61B / RFU, FUBP3 / Fold change vs veh, FUBP3 / RFU, TP53 / Fold change vs veh, TP53 / RFU, TNKS2 / Fold change vs veh, TNKS2 / RFU, ZFP14 / Fold change vs veh, ZFP14 / RFU, ACTR2 / Fold change vs veh, ACTR2 / RFU, PPP3R1 / Fold change vs veh, PPP3R1 / RFU, PIK3R1 / Fold change vs veh, PIK3R1 / RFU, HNRNPA1 / Fold change vs veh, HNRNPA1 / RFU, RNF170 / Fold change vs veh, RNF170 / RFU, ZNF28 / Fold change vs veh, ZNF28 / RFU, RNGTT / Fold change vs veh, RNGTT / RFU, OGT / Fold change vs veh, OGT / RFU, BRD1 / Fold change vs veh, BRD1 / RFU, MARS / Fold change vs veh, MARS / RFU, ZNF655 / Fold change vs veh, ZNF655 / RFU, FAHD1 / Fold change vs veh, FAHD1 / RFU, BDP1 / Fold change vs veh, BDP1 / RFU, LRRCC1 / Fold change vs veh, LRRCC1 / RFU, ARID1A / Fold change vs veh, ARID1A / RFU, ZNF146 / Fold change vs veh, ZNF146 / RFU, ZNF330 / Fold change vs veh, ZNF330 / RFU, GPN3 / Fold change vs veh, GPN3 / RFU, C9orf123 / Fold change vs veh, C9orf123 / RFU, N4BP2L2 / Fold change vs veh, N4BP2L2 / RFU, ARFIP1 / Fold change vs veh, ARFIP1 / RFU, FAM179B / Fold change vs veh, FAM179B / RFU, BCL10 / Fold change vs veh, BCL10 / RFU, UHRF1BP1L / Fold change vs veh, UHRF1BP1L / RFU, BET1 / Fold change vs veh, BET1 / RFU, CNOT2 / Fold change vs veh, CNOT2 / RFU, ZNF268 / Fold change vs veh, ZNF268 / Fold change vs veh, ZNF507 / RFU, DGCR2 / Fold change vs veh, DGCR2 / RFU, WDSUB1 / Fold change vs veh, WDSUB1 / Fold change vs veh, HSP90B1 /// MIR3652 / RFU, ADSS / Fold change vs veh, ADSS / RFU, GK / Fold change vs veh, GK / RFU, ZNF148 / Fold change vs veh, ZNF148 / RFU, TAF9 / Fold change vs veh, TAF9 / RFU, SLC1A5 / Fold change vs veh, SLC1A5 / RFU, SLMO2 / Fold change vs veh, SLMO2 / RFU, ABCC4 / Fold change vs veh, ABCC4 / RFU, LOC101060439 /// RAP1B / Fold change vs veh, LOC101060439 /// RAP1B / RFU, RFX7 / Fold change vs veh, RFX7 / RFU, GTPBP10 / Fold change vs veh, GTPBP10 / RFU, CNEP1R1 / Fold change vs veh, CNEP1R1 / RFU, BIVM-ERCC5 /// ERCC5 / Fold change vs veh, BIVM-ERCC5 /// ERCC5 / RFU, ILF3 / Fold change vs veh, ILF3 / RFU 11762660_at / Fold change /veh 11762660_at / RFU VCAN (11757783_s_at) / Fold change /veh VCAN (11757783_s_at) / RFU DDX43 (11728927_at) / Fold change /veh DDX43 (11728927_at) / RFU KRT8 (11758188_x_at) / Fold change /veh KRT8 (11758188_x_at) / RFU NKD1 (11759106_at) / Fold change /veh NKD1 (11759106_at) / RFU SRD5A1 (11742802_a_at) / Fold change /veh SRD5A1 (11742802_a_at) / RFU TPSAB1 /// TPSB2 (11721975_s_at) / Fold change /veh TPSAB1 /// TPSB2 (11721975_s_at) / RFU GSTM3 (11746129_a_at) / Fold change /veh GSTM3 (11746129_a_at) / RFU IL23R (11737362_x_at) / Fold change /veh IL23R (11737362_x_at) / RFU TMEM51 (11727254_a_at) / Fold change /veh TMEM51 (11727254_a_at) / RFU PIWIL2 (11732686_x_at) / Fold change /veh PIWIL2 (11732686_x_at) / RFU ORM1 (11744905_x_at) / Fold change /veh ORM1 (11744905_x_at) / RFU CCDC152 (11743942_at) / Fold change /veh CCDC152 (11743942_at) / RFU ECM1 (11717891_a_at) / Fold change /veh ECM1 (11717891_a_at) / RFU IL23R (11748794_a_at) / Fold change /veh IL23R (11748794_a_at) / RFU TNFAIP8L3 (11732012_x_at) / Fold change /veh TNFAIP8L3 (11732012_x_at) / RFU MBOAT4 (11741988_at) / Fold change /veh MBOAT4 (11741988_at) / RFU 11764193_at / Fold change /veh 11764193_at / RFU TMEM53 (11763286_at) / Fold change /veh TMEM53 (11763286_at) / RFU MAGEB2 (11727129_at) / Fold change /veh MAGEB2 (11727129_at) / RFU TMEM200A (11744735_a_at) / Fold change /veh TMEM200A (11744735_a_at) / RFU CCDC152 (11751479_a_at) / Fold change /veh CCDC152 (11751479_a_at) / RFU FAM211A (11726209_a_at) / Fold change /veh FAM211A (11726209_a_at) / RFU RGS16 (11746705_a_at) / Fold change /veh RGS16 (11746705_a_at) / RFU VCAN (11755009_s_at) / Fold change /veh VCAN (11755009_s_at) / RFU RHOB (11743442_s_at) / Fold change /veh RHOB (11743442_s_at) / RFU RGS16 (11720943_a_at) / Fold change /veh RGS16 (11720943_a_at) / RFU RGS16 (11720944_at) / Fold change /veh RGS16 (11720944_at) / RFU, VPS4B / Fold change vs veh, VPS4B / RFU, CREB1 / Fold change vs veh, CREB1 / RFU, DNAJC13 / Fold change vs veh, DNAJC13 / RFU, GNAQ / Fold change vs veh, GNAQ / RFU, CDK5R1 / Fold change vs veh, CDK5R1 / RFU, ZRANB3 / Fold change vs veh, ZRANB3 / RFU, CUL4A / Fold change vs veh, CUL4A / RFU, CCNY / Fold change vs veh, CCNY / RFU, UFL1 / Fold change vs veh, UFL1 / RFU, COG3 / Fold change vs veh, COG3 / RFU, DIAPH2 / Fold change vs veh, DIAPH2 / RFU, SKA2 / Fold change vs veh, SKA2 / RFU, AFF3 / Fold change vs veh, AFF3 / RFU, LMF1 / Fold change vs veh, LMF1 / RFU, IPO11 / Fold change vs veh, IPO11 / RFU, DFFB / Fold change vs veh, DFFB / RFU, FOXP1 / Fold change vs veh, FOXP1 / RFU, CARD8 / Fold change vs veh, CARD8 / RFU, STRN3 / Fold change vs veh, STRN3 / RFU, ADK / Fold change vs veh, ADK / RFU, RASSF2 / Fold change vs veh, RASSF2 / RFU, WIPF1 / Fold change vs veh, WIPF1 / RFU, LARP1B / Fold change vs veh, LARP1B / RFU, RASA1 / Fold change vs veh, RASA1 / RFU, RB1 / Fold change vs veh, RB1 / RFU, PPFIA1 / Fold change vs veh, PPFIA1 / RFU, MAT2A / Fold change vs veh, MAT2A / RFU, CCT5 / Fold change vs veh, CCT5 / RFU, WDR92 / Fold change vs veh, WDR92 / RFU, CUX1 / Fold change vs veh, CUX1 / RFU, TTC7A / Fold change vs veh, TTC7A / RFU, TMEM135 / Fold change vs veh, TMEM135 / RFU, DEPTOR / Fold change vs veh, DEPTOR / RFU, CPM / Fold change vs veh, CPM / RFU, DNAJB6 / Fold change vs veh, DNAJB6 / RFU, CACNA2D3 / Fold change vs veh, CACNA2D3 / RFU, DTX4 / Fold change vs veh, DTX4 / RFU, TFCP2 / Fold change vs veh, TFCP2 / RFU, GMCL1 /// GMCL1P1 / Fold change vs veh, GMCL1 /// GMCL1P1 / RFU, AEBP2 / Fold change vs veh, AEBP2 / RFU, SNHG1 /// SNORD22 /// SNORD25 /// SNORD26 /// SNORD27 /// SNORD28 /// SNORD29 /// SNORD31 / Fold change vs veh, SNHG1 /// SNORD22 /// SNORD25 /// SNORD26 /// SNORD27 /// SNORD28 /// SNORD29 /// SNORD31 / Fold change (Aza/veh), C12orf56 (ProbeSet 11735607_a_at) / Fold change (ACY-1035/veh), C12orf56 (ProbeSet 11735607_a_at) / Fold change (Aza/veh), FGFR1OP (ProbeSet 11751329_s_at) / Fold change (ACY-1035/veh), FGFR1OP (ProbeSet 11751329_s_at) / Fold change (Aza/veh), VPS36 (ProbeSet 11739960_a_at) / Fold change (ACY-1035/veh), VPS36 (ProbeSet 11739960_a_at) / RFU SYPL1 (11715823_x_at) / Fold change /veh SYPL1 (11715823_x_at) / RFU IGFBP7 (11715501_s_at) / Fold change /veh IGFBP7 (11715501_s_at) / RFU REEP3 (11722064_at) / Fold change /veh REEP3 (11722064_at) / RFU IGLL1 (11728026_x_at) / Fold change /veh IGLL1 (11728026_x_at): dose or concentration left out as unconfirmed
Conditions: ProbeSet 11715478_a_at; LIST B

For `Nc1ccc(-c2cccs2)cc1NC(=O)c1ccc2c(c1)cc(C1CC1)n2CCN1CCOCC1` [ACY-1035], the “RFU, TFRC” value was 135.12 RFU.
